The text below walks through data of paper PMC9898226, “Emergence of a proton exchange-based isomerization and lactonization mechanism in the plant coumarin synthase COSY” (Nature Communications, 2023).

Common to all, as to type: biochemical
One experiment deals with T1, SbCOSY (Sorghum bicolor, UniProt C5Z4D6).
T1 construct: gene SORBI_3010G043700
T1 sequence (C5Z4D6 1-456): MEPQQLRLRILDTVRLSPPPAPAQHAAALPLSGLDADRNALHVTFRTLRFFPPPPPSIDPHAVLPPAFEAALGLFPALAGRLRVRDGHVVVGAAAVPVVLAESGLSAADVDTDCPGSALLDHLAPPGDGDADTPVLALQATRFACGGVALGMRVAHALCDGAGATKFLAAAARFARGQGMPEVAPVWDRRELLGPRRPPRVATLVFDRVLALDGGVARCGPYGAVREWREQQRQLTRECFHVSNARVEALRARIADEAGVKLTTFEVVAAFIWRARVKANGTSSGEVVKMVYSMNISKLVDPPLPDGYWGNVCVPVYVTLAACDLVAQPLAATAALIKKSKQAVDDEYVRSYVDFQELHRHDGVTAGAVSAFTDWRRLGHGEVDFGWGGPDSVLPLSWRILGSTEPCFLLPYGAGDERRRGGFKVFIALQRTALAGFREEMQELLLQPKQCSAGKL
Description: coupled At4CL1 assay, LC-MS of scopoletin. The settings on record: substrate made in situ by At4CL1 from 6-hydroxyferulic acid, ATP, CoA, Mg2+; 20 mM HEPES; spontaneous background.

For experiment [1], the target named is T2, AtCOSY (Arabidopsis thaliana, UniProt Q8LF28).
T2 construct: gene COSY; N-terminal 8xHis tag with TEV site (pHis8-4), tag cleaved; E. coli BL21(DE3); domains 1-181, 182-229, 230-451
T2 sequence (Q8LF28 1-451): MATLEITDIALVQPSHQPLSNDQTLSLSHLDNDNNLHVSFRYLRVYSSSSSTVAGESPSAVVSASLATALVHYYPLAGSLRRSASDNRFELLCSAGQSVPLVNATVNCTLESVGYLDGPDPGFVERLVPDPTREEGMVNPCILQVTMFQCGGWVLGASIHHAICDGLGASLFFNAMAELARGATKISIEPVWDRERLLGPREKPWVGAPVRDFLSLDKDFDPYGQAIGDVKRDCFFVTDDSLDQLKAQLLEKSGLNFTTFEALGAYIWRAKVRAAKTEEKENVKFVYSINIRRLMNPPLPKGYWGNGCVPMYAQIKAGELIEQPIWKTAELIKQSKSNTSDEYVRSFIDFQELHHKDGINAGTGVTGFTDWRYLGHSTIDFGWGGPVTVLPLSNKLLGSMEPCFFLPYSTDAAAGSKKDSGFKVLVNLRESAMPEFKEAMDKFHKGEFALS
Description: coupled At4CL1 assay, LC-MS of scopoletin. The settings on record: substrate made in situ by At4CL1 from 6-hydroxyferulic acid, ATP, CoA, Mg2+; 20 mM HEPES; spontaneous background.

In another experiment the target is T3, GmCOSY (Glycine max, UniProt A0A0R0H5A1).
T3 construct: gene LOC100817021
T3 sequence (A0A0R0H5A1 1-452): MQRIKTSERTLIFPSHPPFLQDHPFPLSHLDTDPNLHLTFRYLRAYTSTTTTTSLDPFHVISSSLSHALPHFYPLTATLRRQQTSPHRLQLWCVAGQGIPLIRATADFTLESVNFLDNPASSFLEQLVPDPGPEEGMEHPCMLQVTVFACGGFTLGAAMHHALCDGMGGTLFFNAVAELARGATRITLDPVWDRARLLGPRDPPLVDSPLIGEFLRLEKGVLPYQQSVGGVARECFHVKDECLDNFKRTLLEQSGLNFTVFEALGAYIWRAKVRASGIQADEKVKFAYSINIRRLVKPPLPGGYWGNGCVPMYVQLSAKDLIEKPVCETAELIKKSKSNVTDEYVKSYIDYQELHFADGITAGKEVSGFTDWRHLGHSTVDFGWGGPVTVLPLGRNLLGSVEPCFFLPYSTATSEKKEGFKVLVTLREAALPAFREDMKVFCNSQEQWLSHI
As to the kind of experiment: coupled At4CL1 assay, LC-MS of scopoletin. The settings on record: substrate made in situ by At4CL1 from 6-hydroxyferulic acid, ATP, CoA, Mg2+; 20 mM HEPES; spontaneous background.

The target in another experiment is T4, StCOSY (Solanum tuberosum, UniProt M0ZYT4).
T4 sequence (M0ZYT4 1-444): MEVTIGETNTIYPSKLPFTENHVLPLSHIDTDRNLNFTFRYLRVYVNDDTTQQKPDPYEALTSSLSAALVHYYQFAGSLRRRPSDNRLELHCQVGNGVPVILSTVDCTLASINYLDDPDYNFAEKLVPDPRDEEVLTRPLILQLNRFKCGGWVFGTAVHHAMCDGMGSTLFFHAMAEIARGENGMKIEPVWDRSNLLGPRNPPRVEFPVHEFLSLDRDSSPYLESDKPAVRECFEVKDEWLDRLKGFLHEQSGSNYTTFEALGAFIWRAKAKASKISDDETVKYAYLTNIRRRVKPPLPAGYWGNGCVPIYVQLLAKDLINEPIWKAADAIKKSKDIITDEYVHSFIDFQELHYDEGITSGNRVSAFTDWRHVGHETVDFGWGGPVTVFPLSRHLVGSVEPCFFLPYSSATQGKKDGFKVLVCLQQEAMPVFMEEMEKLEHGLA
Description: coupled At4CL1 assay, LC-MS of scopoletin. The settings on record: substrate made in situ by At4CL1 from 6-hydroxyferulic acid, ATP, CoA, Mg2+; 20 mM HEPES; spontaneous background.

Experiment [2] deals with T2, AtCOSY. Description: coupled At4CL1 assay, LC-MS of umbelliferone. The settings on record: substrate made in situ by At4CL1 from 2-hydroxy-p-coumaric acid (CAS 614-86-8), ATP, CoA, Mg2+; 20 mM HEPES.

For `COc1cc(/C=C/C(=O)SCCNC(=O)CCNC(=O)[C@H](O)C(C)(C)COP(=O)(O)OP(=O)(O)OC[C@H]2O[C@@H](n3cnc4c(N)ncnc43)[C@H](O)[C@@H]2OP(=O)(O)O)c(O)cc1O` [6-hydroxyferuloyl-CoA], the “coupled At4CL1 assay, LC-MS of scopoletin” value was “GmCOSY, StCOSY and SbCOSY contain coumarin synthase activity comparable to that of AtCOSY” on SbCOSY; “addition of AtCOSY resulted in significant acceleration of coumarin production” on AtCOSY [1]; “GmCOSY, StCOSY and SbCOSY contain coumarin synthase activity comparable to that of AtCOSY” on GmCOSY; “GmCOSY, StCOSY and SbCOSY contain coumarin synthase activity comparable to that of AtCOSY” on StCOSY.
`CC(C)(COP(=O)(O)OP(=O)(O)OC[C@H]1O[C@@H](n2cnc3c(N)ncnc32)[C@H](O)[C@@H]1OP(=O)(O)O)[C@@H](O)C(=O)NCCC(=O)NCCSC(=O)/C=C/c1ccc(O)cc1O` [2-hydroxy-p-coumaroyl CoA]: the “coupled At4CL1 assay, LC-MS of umbelliferone” value at AtCOSY [2] is “addition of AtCOSY resulted in significant acceleration of coumarin production”.
